From paper PMC9780942, “Antimicrobial Activity and Immunomodulatory Properties of Acidocin A, the Pediocin-like Bacteriocin with the Non-Canonical Structure” (Membranes, 2022)
Positions of bridges follow the written chain, without caps; N, C: chain ends. Residues, ends and D or L forms follow the SMILES beside them. No end group written: not given here.

What was measured:
L. lactis MK66 = format: cell-based; details: MK66, 24 h
Description: (§1) Antibacterial activity of recombinant bacteriocins against a number of Gram-positive and Gram-negative bacteria (Table S2) was determined by the method of two-fold serial dilutions in a liquid medium. Two-fold serial dilutions of bacteriocins were prepared in sterile 96-well flat-bottom polystyrene microplates (Eppendorf, Hamburg, Germany) (Cat. No. 0030730.011) in a volume of 50 µL of sterile 0.1% bovine serum albumin (BSA) (SERVA Electrophoresis GmbH, Heidelberg, Germany) to prevent non-specific sorption of peptides to the surface of the plate wells [23]. Mid-log phase bacterial cultures were diluted with the 2x Mueller-Hinton broth (MHB) (Sigma-Aldrich, St. Louis, MO, USA) to a final cell concentration of 10^6 colony forming units (CFU) per mL. To determine the activity of bacteriocins against Listeria and Enterococci, 3% tryptic soy broth (TSB) (Merck-Millipore, Burlington, MA, USA) was used instead of MHB. Aliquots of 50 μL of diluted bacterial suspensions were added to each well of the plate, which was then incubated at 37 °C and 950 rpm for 24 h using thermostatable plate shaker PST-60HL-4 (Biosan, Riga, Latvia). As a negative control, 50 µL of the sterile growth medium (2xMHB or 6% TSB) was added to the wells containing 50 µL of 0.1% BSA. The values of the minimum inhibitory concentrations (MIC) were determined as the minimum concentration of the peptide, at which there was no visible growth of bacterial culture. Incubation for 2 h with 20 µg/mL chromogenic substrate resazurin (Sigma-Aldrich, St. Louis, MO, USA) was used to detect viable bacterial cells if they were difficult to visually detect. To study the effect of inorganic salts on the antimicrobial activity of bacteriocins, antibacterial activity assay was carried out in MHB medium supplemented with 0.9% NaCl.

B. subtilis B-886 = format: cell-based; details: B-886, 24 h
Description: as §1

E. coli ML-35p = format: cell-based; details: 24 h
Description: as §1

E. coli ATCC 25922 = format: cell-based; details: ATCC 25922, 24 h
Description: as §1

M. phlei Ac-1221 = format: cell-based; details: 24 h
Description: as §1

S. aureus 209P = format: cell-based; details: 24 h
Description: as §1

A. baumannii XDR CI 2675 = format: cell-based; details: XDR CI 2675, 24 h
Description: as §1

B. licheniformis B-511 = format: cell-based; details: 24 h
Description: as §1

M. luteus Ac-2229 = format: cell-based; details: Ac-2229, 24 h
Description: as §1

E. coli XDR CI 1057 = format: cell-based; details: XDR CI 1057, 24 h
Description: as §1

E. coli SQ110 = format: cell-based; details: SQ110, 24 h
Description: as §1

[1] = test system: P. aeruginosa MDR CI 1995; format: cell-based; details: MDR CI 1995, 24 h
Description: as §1

L. monocytogenes EGD = format: cell-based, Listeria monocytogenes; details: 24 h
Description: as §1

L. lactis MK43 = test: Antibacterial activity assay (MIC), two-fold serial dilutions in liquid medium; format: cell-based; details: for Minimum inhibitory concentration in the presence of NaCl: MHB supplemented with 0.9% NaCl; for Minimum Inhibitory Concentration: MHB, 0.1% BSA, 37 °C, 24 h, no visible growth
Description: as §1

“HCTKKSLWGKVRLKNVIPGTLCRKQSLPIKQDLKILLGWATGAFGKTFH (disulfide 2-22) [AcdA(d9)]” was tested, and the “Minimum Inhibitory Concentration” value (L. lactis MK66) was 2 µM, the “Minimum inhibitory concentration in the presence of NaCl” value (L. lactis MK66) was over 32 µM and the “Minimum Inhibitory Concentration” value (B. subtilis B-886) was 8 µM. The “Minimum inhibitory concentration in the presence of NaCl” value (B. subtilis B-886) was over 32 µM, the “Minimum Inhibitory Concentration” value (E. coli ML-35p) was 4 µM and the “Minimum inhibitory concentration in the presence of NaCl” value (E. coli ML-35p) was 16 µM. For the same compound, the “Minimum Inhibitory Concentration” value (E. coli ATCC 25922) was 16 µM, the “Minimum Inhibitory Concentration” value (M. phlei Ac-1221) was 4 µM and the “Minimum Inhibitory Concentration” value (S. aureus 209P) was 16 µM. The “Minimum Inhibitory Concentration” value (A. baumannii XDR CI 2675) was 4 µM, the “Minimum Inhibitory Concentration” value (B. licheniformis B-511) was 8 µM and the “Minimum inhibitory concentration in the presence of NaCl” value (B. licheniformis B-511) was over 32 µM. The “Minimum Inhibitory Concentration” value (M. luteus Ac-2229) was 16 µM, the “Minimum Inhibitory Concentration” value (E. coli XDR CI 1057) was 8 µM and the “Minimum Inhibitory Concentration” value (E. coli SQ110) was 8 µM. The “Minimum inhibitory concentration in the presence of NaCl” value (E. coli SQ110) was 32 µM, the “Minimum Inhibitory Concentration” value [1] was 16 µM and the “Minimum Inhibitory Concentration” value (L. monocytogenes EGD) was over 32 µM. For the same compound, the “Minimum inhibitory concentration in the presence of NaCl” value (L. lactis MK43) was over 32 µM and the “Minimum Inhibitory Concentration” value (L. lactis MK43) was 8 µM.
With “KTYYGTNAVHCTKKSLWGKVRLKNVIPGTLCRKQSLPIKQDLKILLGWATGAFGKTFH (disulfide 11-31) [AcdA(G8A)]” the “Minimum Inhibitory Concentration” value (L. lactis MK66) was 2 µM, the “Minimum inhibitory concentration in the presence of NaCl” value (L. lactis MK66) was over 32 µM and the “Minimum Inhibitory Concentration” value (B. subtilis B-886) was 8 µM. For the same compound, the “Minimum inhibitory concentration in the presence of NaCl” value (B. subtilis B-886) was over 32 µM, the “Minimum Inhibitory Concentration” value (E. coli ML-35p) was 8 µM and the “Minimum inhibitory concentration in the presence of NaCl” value (E. coli ML-35p) was 16 µM. The “Minimum Inhibitory Concentration” value (E. coli ATCC 25922) was 16 µM, the “Minimum Inhibitory Concentration” value (M. phlei Ac-1221) was 2 µM and the “Minimum Inhibitory Concentration” value (S. aureus 209P) was 8 µM. For the same compound, the “Minimum Inhibitory Concentration” value (A. baumannii XDR CI 2675) was 8 µM, the “Minimum Inhibitory Concentration” value (B. licheniformis B-511) was 8 µM and the “Minimum inhibitory concentration in the presence of NaCl” value (B. licheniformis B-511) was over 32 µM. For the same compound, the “Minimum Inhibitory Concentration” value (M. luteus Ac-2229) was 16 µM, the “Minimum Inhibitory Concentration” value (E. coli XDR CI 1057) was 8 µM and the “Minimum Inhibitory Concentration” value (E. coli SQ110) was 4 µM. For the same compound, the “Minimum inhibitory concentration in the presence of NaCl” value (E. coli SQ110) was 32 µM, the “Minimum Inhibitory Concentration” value [1] was 16 µM and the “Minimum Inhibitory Concentration” value (L. monocytogenes EGD) was over 32 µM. For the same compound, the “Minimum inhibitory concentration in the presence of NaCl” value (L. lactis MK43) was over 32 µM and the “Minimum Inhibitory Concentration” value (L. lactis MK43) was 4 µM.
`CC[C@H](C)[C@H](NC(=O)[C@H](Cc1ccc(O)cc1)NC(=O)[C@@H](NC(=O)[C@@H](NC(=O)[C@H](CC(N)=O)NC(=O)[C@H](CCC(N)=O)NC(=O)[C@H](CC(=O)O)NC(=O)[C@H](Cc1ccc(O)cc1)NC(=O)[C@H](CCCCN)NC(=O)[C@@H](NC(=O)[C@H](CC(N)=O)NC(=O)[C@H](CCCCN)NC(=O)[C@H](CC(C)C)NC(=O)[C@H](CCCNC(=N)N)NC(=O)[C@@H](NC(=O)[C@H](CCCCN)NC(=O)CNC(=O)[C@H](Cc1c[nH]c2ccccc12)NC(=O)[C@H](CC(C)C)NC(=O)[C@H](CO)NC(=O)[C@H](CC(N)=O)NC(=O)[C@H](CCCCN)NC(=O)[C@@H](NC(=O)[C@H](CS)NC(=O)[C@H](Cc1c[nH]cn1)NC(=O)[C@@H](NC(=O)CNC(=O)[C@H](CC(N)=O)NC(=O)[C@@H](NC(=O)CNC(=O)[C@H](Cc1ccc(O)cc1)NC(=O)[C@H](Cc1ccc(O)cc1)NC(=O)[C@@H](NC(=O)[C@@H](N)CCCCN)[C@@H](C)O)[C@@H](C)O)C(C)C)[C@@H](C)O)C(C)C)C(C)C)[C@@H](C)O)[C@@H](C)O)C(=O)NCC(=O)N[C@@H](CCCNC(=N)N)C(=O)N[C@@H](CC(C)C)C(=O)N[C@@H](CCC(N)=O)C(=O)N[C@@H](CC(=O)O)C(=O)N[C@H](C(=O)N[C@@H](CC(C)C)C(=O)N[C@@H](CC(C)C)C(=O)NCC(=O)N[C@@H](Cc1c[nH]c2ccccc12)C(=O)N[C@@H](C)C(=O)N[C@H](C(=O)NCC(=O)N[C@@H](C)C(=O)N[C@@H](Cc1ccccc1)C(=O)NCC(=O)N[C@@H](CCCCN)C(=O)N[C@H](C(=O)N[C@@H](Cc1ccccc1)C(=O)N[C@@H](Cc1c[nH]cn1)C(=O)O)[C@@H](C)O)[C@@H](C)O)[C@@H](C)CC` [OR-7(VI) (DTT reduced)] (H-KTYYGTNGVHCTKNSLWGKVRLKNVKYDQNTTYIGRLQDILLGWATGAFGKTFH-OH; N-terminus and C-terminus assumed) was tested, and the “Minimum Inhibitory Concentration” value (L. lactis MK66) was 4 µM, the “Minimum Inhibitory Concentration” value (B. subtilis B-886) was 16 µM and the “Minimum Inhibitory Concentration” value (E. coli ML-35p) was over 32 µM. For the same compound, the “Minimum Inhibitory Concentration” value (E. coli ATCC 25922) was over 32 µM, the “Minimum Inhibitory Concentration” value (M. phlei Ac-1221) was 32 µM and the “Minimum Inhibitory Concentration” value (S. aureus 209P) was over 32 µM. For the same compound, the “Minimum Inhibitory Concentration” value (A. baumannii XDR CI 2675) was over 32 µM, the “Minimum Inhibitory Concentration” value (B. licheniformis B-511) was 8 µM and the “Minimum Inhibitory Concentration” value (M. luteus Ac-2229) was over 32 µM. The “Minimum Inhibitory Concentration” value (E. coli XDR CI 1057) was over 32 µM, the “Minimum Inhibitory Concentration” value (E. coli SQ110) was over 32 µM and the “Minimum Inhibitory Concentration” value [1] was over 32 µM. For the same compound, the “Minimum Inhibitory Concentration” value (L. monocytogenes EGD) was over 32 µM and the “Minimum Inhibitory Concentration” value (L. lactis MK43) was over 32 µM.
With “KTYYGTNGVHCTKKSLWGKVRLKNVIPGTLCRKQSLPIKQDLKILLGWATGAFGKTFH (cysteines drawn unpaired) [AcdA (DTT reduced)]” the “Minimum Inhibitory Concentration” value (L. lactis MK66) was 1 µM, the “Minimum Inhibitory Concentration” value (B. subtilis B-886) was 4 µM and the “Minimum Inhibitory Concentration” value (E. coli ML-35p) was 4 µM. For the same compound, the “Minimum Inhibitory Concentration” value (E. coli ATCC 25922) was 8 µM, the “Minimum Inhibitory Concentration” value (M. phlei Ac-1221) was 4 µM and the “Minimum Inhibitory Concentration” value (S. aureus 209P) was 16 µM. For the same compound, the “Minimum Inhibitory Concentration” value (A. baumannii XDR CI 2675) was 8 µM, the “Minimum Inhibitory Concentration” value (B. licheniformis B-511) was 4 µM and the “Minimum Inhibitory Concentration” value (M. luteus Ac-2229) was 16 µM. For the same compound, the “Minimum Inhibitory Concentration” value (E. coli XDR CI 1057) was 16 µM, the “Minimum Inhibitory Concentration” value (E. coli SQ110) was 4 µM and the “Minimum Inhibitory Concentration” value [1] was over 32 µM. For the same compound, the “Minimum Inhibitory Concentration” value (L. monocytogenes EGD) was over 32 µM and the “Minimum Inhibitory Concentration” value (L. lactis MK43) was 2 µM.
In the case of “KTYVGNTGYHCTKKSLWGKVRLKNVIPGTLCRKQSLPIKQDLKILLGWATGAFGKTFH (disulfide 11-31) [AcdA(x4)]”, the “Minimum Inhibitory Concentration” value (L. lactis MK66) is reported as 2 µM, the “Minimum inhibitory concentration in the presence of NaCl” value (L. lactis MK66) is reported as over 32 µM and the “Minimum Inhibitory Concentration” value (B. subtilis B-886) is reported as 8 µM. The “Minimum inhibitory concentration in the presence of NaCl” value (B. subtilis B-886) was over 32 µM, the “Minimum Inhibitory Concentration” value (E. coli ML-35p) was 8 µM and the “Minimum inhibitory concentration in the presence of NaCl” value (E. coli ML-35p) was 16 µM. The “Minimum Inhibitory Concentration” value (E. coli ATCC 25922) was 16 µM, the “Minimum Inhibitory Concentration” value (M. phlei Ac-1221) was 4 µM and the “Minimum Inhibitory Concentration” value (S. aureus 209P) was 16 µM. The “Minimum Inhibitory Concentration” value (A. baumannii XDR CI 2675) was 4 µM, the “Minimum Inhibitory Concentration” value (B. licheniformis B-511) was 4 µM and the “Minimum inhibitory concentration in the presence of NaCl” value (B. licheniformis B-511) was over 32 µM. For the same compound, the “Minimum Inhibitory Concentration” value (M. luteus Ac-2229) was 8 µM, the “Minimum Inhibitory Concentration” value (E. coli XDR CI 1057) was 8 µM and the “Minimum Inhibitory Concentration” value (E. coli SQ110) was 8 µM. The “Minimum inhibitory concentration in the presence of NaCl” value (E. coli SQ110) was 32 µM, the “Minimum Inhibitory Concentration” value [1] was 16 µM and the “Minimum Inhibitory Concentration” value (L. monocytogenes EGD) was over 32 µM. For the same compound, the “Minimum inhibitory concentration in the presence of NaCl” value (L. lactis MK43) was over 32 µM and the “Minimum Inhibitory Concentration” value (L. lactis MK43) was 4 µM.
